Assay results published in patent US6677350B1, “Beta-fluoroethyl thiourea compounds and use” (priority 1999, dated 2004).
Values joined by “and” are separate entries in the source; they are usually repeats but may differ in a detail not shown here. Identical values can stand only once. Like-named read-outs stand apart in the source and are kept apart here.

Test system: M. tuberculosis H37Rv (ATCC 27294)
Assay: In vitro anti-tuberculosis screening, BACTEC 460 radiometric system, percent inhibition of growth
Format: cell-based, Mycobacterium tuberculosis
Details: Mtb H37Rv; for inhibition at 12.5 µg/mL: Mycobacterium tuberculosis
[1] = 12.5 μg/mL, BACTEC 12B medium, read-out: Activity % Inhibition at 12.5 μg/mL (biflavonoids)

Question: Which results are given for `O=C(/C=C/c1ccc(I)cc1)c1ccccc1O` [Compound 46]?
Answer: Activity % inhibition at 12.5 μg/mL (chalcones) (12.5 μg/mL, BACTEC 12B medium): 21%; inhibition of the growth of Mtb (drug concentration 12.5 μg/mL): 21%

Question: For `COc1ccc(-c2cc(=O)c3ccc(F)cc3o2)cc1` [Compound 118], which “Activity % Inhibition at 12.5 μg/mL (flavones)” value (12.5 μg/mL, BACTEC 12B medium) is on record?
Answer: 0%

Question: Which “Activity % Inhibition at 12.5 μg/mL (flavanones)” value (12.5 μg/mL, BACTEC 12B medium) does the source give for `O=C1c2ccccc2OC(c2cccc(Cl)c2)C1O` (centres unmarked) [Compound 135] here?
Answer: 63%

Question: Which results are given for `O=c1c(O)c(-c2ccccc2)oc2ccccc12` [Compound 92, 3-hydroxyflavone]?
Answer: inhibition at 12.5 µg/mL (12.5 μg/mL, BACTEC 12B medium, read-out: Activity % Inhibition at 12.5 μg/mL (flavones)): 38%; inhibition at 12.5 µg/mL (drug concentration 12.5 μg/mL, read-out: inhibition of the growth of Mtb): 38%

Question: Which “Activity % inhibition at 12.5 μg/mL (chalcones)” value (12.5 μg/mL, BACTEC 12B medium) does the source give for `COc1ccc(C=CC(=O)c2ccc(Cl)cc2O)cc1` [Compound 28] here?
Answer: 57%

Question: And the “inhibition of the growth of Mtb” value (drug concentration 12.5 μg/mL)?
Answer: 57%

Question: With `O=C1C[C@@H](c2ccc(O)cc2)Oc2c1c(O)cc(O[C@@H]1O[C@H](CO)[C@@H](O)[C@H](O)[C@H]1O)c2[C@H]1C(=O)c2c(O)cc(O)cc2O[C@@H]1c1ccc(O)cc1` [Compound 178, Multifloraside] as the molecule, how does the “Activity % Inhibition at 12.5 μg/mL (biflavonoids)” value (12.5 μg/mL, BACTEC 12B medium) read?
Answer: 0%

Question: `O=c1cc(-c2ccc(O)cc2)oc2ccccc12` [Compound 104] was tested. Which “Activity % Inhibition at 12.5 μg/mL (flavones)” value (12.5 μg/mL, BACTEC 12B medium) did it give?
Answer: 18%

Question: How did the “Activity % Inhibition at 12.5 μg/mL (flavanones)” value (12.5 μg/mL, BACTEC 12B medium) turn out when `O=C1CC(c2ccccc2)Oc2ccc(Cl)cc21` (centres unmarked) [Compound 138] was run?
Answer: 30%

Question: Which “Activity % inhibition at 12.5 μg/mL (chalcones)” value (12.5 μg/mL, BACTEC 12B medium) does the source give for `O=C(/C=C/c1ccccc1)c1cc(I)ccc1O` [Compound 42] here?
Answer: 51%

Question: What about the “inhibition of the growth of Mtb” value (drug concentration 12.5 μg/mL) of the same molecule?
Answer: 51% and 52%

Question: With `O=c1c(O)c(-c2ccccc2)oc2ccc(I)cc12` [Compound 79] as the molecule, how does the “Activity % Inhibition at 12.5 μg/mL (flavones)” value (12.5 μg/mL, BACTEC 12B medium) read?
Answer: 64%

Question: Which “anti-TB activity in words” value (12.5 μg/mL) does the source give for `COc1ccc(C2CC(=O)c3c(cc(OC)c(-c4c(OC)cc5c(c4OC)C(=O)CC(c4ccc(OC)cc4)O5)c3OC)O2)cc1` (centres unmarked) [Compound 157, 6-6′′-Binaringenin hexamethylether] here?
Answer: inactive

Question: What about the “Activity % Inhibition at 12.5 μg/mL (biflavonoids)” value (12.5 μg/mL, BACTEC 12B medium) of the same molecule?
Answer: 2%

Question: `Nc1cccc(/C=C/C(=O)c2ccccc2O)c1` [Compound 11] was tested. Which “Activity % inhibition at 12.5 μg/mL (chalcones)” value (12.5 μg/mL, BACTEC 12B medium) did it give?
Answer: 11%

Question: For `CC(=O)Oc1ccc([C@@H]2CC(=O)c3c(cc(OC(C)=O)c(-c4c(OC(C)=O)cc5c(c4OC(C)=O)C(=O)C[C@@H](c4ccc(OC(C)=O)cc4)O5)c3OC(C)=O)O2)cc1` [Compound 174, Succedaneaflavanone hexaacetate], which “Activity % Inhibition at 12.5 μg/mL (biflavonoids)” value (12.5 μg/mL, BACTEC 12B medium) is on record?
Answer: 0%

Question: With `CC(=O)Oc1ccc(C2Oc3cc(OC(C)=O)cc(OC(C)=O)c3C(=O)C2c2c(OC(C)=O)cc(OC(C)=O)c3c(=O)cc(-c4ccc(OC(C)=O)c(OC(C)=O)c4)oc23)cc1` (centres unmarked) [Compound 175, Morelloflavone heptaacetate] as the molecule, how does the “Activity % Inhibition at 12.5 μg/mL (biflavonoids)” value (12.5 μg/mL, BACTEC 12B medium) read?
Answer: 0%

Question: `O=C(C=Cc1ccc(Br)cc1)c1ccccc1O` [Compound 33] was tested. Which “Activity % inhibition at 12.5 μg/mL (chalcones)” value (12.5 μg/mL, BACTEC 12B medium) did it give?
Answer: 70%

Question: What about the “inhibition of the growth of Mtb” value (drug concentration 12.5 μg/mL) of the same molecule?
Answer: 70%

Question: Which results are given for `O=c1cc(-c2ccccc2)oc2cc(Cl)ccc12` [Compound 122]?
Answer: anti-TB activity in words (12.5 μg/mL): weakly active or inactive; Activity % Inhibition at 12.5 μg/mL (flavones) (12.5 μg/mL, BACTEC 12B medium): 0%

Question: How did the “anti-TB activity in words” value (12.5 μg/mL) turn out when `O=c1cc(-c2ccccc2I)oc2ccccc12` [Compound 100] was run?
Answer: weakly active or inactive

Question: What about the “Activity % Inhibition at 12.5 μg/mL (flavones)” value (12.5 μg/mL, BACTEC 12B medium) of the same molecule?
Answer: 22%

Question: And the “inhibition of the growth of Mtb” value (drug concentration 12.5 μg/mL)?
Answer: 22%

Question: How did the “Activity % inhibition at 12.5 μg/mL (chalcone-like compounds)” value (12.5 μg/mL, BACTEC 12B medium) turn out when `O=C(/C=C/c1ccco1)c1ccc(Br)cc1O` [Compound 63] was run?
Answer: 17%

Question: `O=C(/C=C/c1ccncc1)c1ccco1` [Compound 75] was tested. Which “Activity % inhibition at 12.5 μg/mL (chalcone-like compounds)” value (12.5 μg/mL, BACTEC 12B medium) did it give?
Answer: 0%

Question: Which “Activity % Inhibition at 12.5 μg/mL (biflavonoids)” value (12.5 μg/mL, BACTEC 12B medium) does the source give for `O=C1c2c(O)cc(O)cc2OC(c2ccc(O)cc2)C1c1c(O[C@@H]2O[C@H](CO)[C@@H](O)[C@H](O)[C@H]2O)cc(O)c2c(=O)cc(-c3ccc(O)cc3)oc12` (some centres unmarked) [Compound 176, Spicataside] here?
Answer: 0%

Question: With `COc1ccc(-c2oc3ccc(Cl)cc3c(=O)c2O)cc1` [Compound 87] as the molecule, how does the “anti-TB activity in words” value (12.5 μg/mL) read?
Answer: did not change the activity

Question: And the “Activity % Inhibition at 12.5 μg/mL (flavones)” value (12.5 μg/mL, BACTEC 12B medium)?
Answer: 48%

Question: Which results are given for `O=C(O)c1ccc(O)c(C(=O)C=Cc2cccc(I)c2)c1` [Compound 50]?
Answer: Activity % inhibition at 12.5 μg/mL (chalcones) (12.5 μg/mL, BACTEC 12B medium): 0%; inhibition of the growth of Mtb (drug concentration 12.5 μg/mL): 0%

Question: Which results are given for `COc1ccc(-c2cc(=O)c3c(OC)cc(OC)c([C@@H]4C(=O)c5c(OC)cc(OC)cc5O[C@H]4c4ccc(OC)cc4)c3o2)cc1` [Compound 152, Volkensiflavone hexamethylether]?
Answer: Activity % Inhibition at 12.5 μg/mL (biflavonoids) (12.5 μg/mL, BACTEC 12B medium): 95%; inhibition of the growth of Mtb (drug concentration 12.5 μg/mL): 95%

Question: For `CN(C)c1ccc(/C=C/C(=O)c2ccncc2)cc1` [Compound 68], which “Activity % inhibition at 12.5 μg/mL (chalcone-like compounds)” value (12.5 μg/mL, BACTEC 12B medium) is on record?
Answer: 1%

Question: For `O=c1cc(-c2ccccc2)oc2ccc(-c3ccccc3-c3cc(=O)c4ccccc4o3)cc12` [Compound 156, 6-2′′′′-Biflavone], which “Activity % Inhibition at 12.5 μg/mL (biflavonoids)” value (12.5 μg/mL, BACTEC 12B medium) is on record?
Answer: 9%

Question: With `COc1ccc(C(=O)/C=C/c2ccccc2)c(O)c1` [Compound 1] as the molecule, how does the “Activity % inhibition at 12.5 μg/mL (chalcones)” value (12.5 μg/mL, BACTEC 12B medium) read?
Answer: 78%

Question: And the “inhibition of the growth of Mtb” value (drug concentration 12.5 μg/mL)?
Answer: 78%

Question: What does the source list for `COc1ccc(C=CC(=O)c2ccc(Br)cc2O)cc1` [Compound 36]?
Answer: Activity % inhibition at 12.5 μg/mL (chalcones) (12.5 μg/mL, BACTEC 12B medium): 25%; inhibition of the growth of Mtb (drug concentration 12.5 μg/mL): 25%

Question: How did the “Activity % inhibition at 12.5 μg/mL (chalcones)” value (12.5 μg/mL, BACTEC 12B medium) turn out when `Nc1cccc(C(=O)/C=C/c2ccccc2I)c1` [Compound 41] was run?
Answer: 88%

Question: And the “inhibition of the growth of Mtb” value (drug concentration 12.5 μg/mL)?
Answer: 88%

Question: `O=c1cc(-c2cccc(I)c2)oc2ccccc12` [Compound 101] was tested. Which “anti-TB activity in words” value (12.5 μg/mL) did it give?
Answer: weakly active or inactive

Question: What about the “Activity % Inhibition at 12.5 μg/mL (flavones)” value (12.5 μg/mL, BACTEC 12B medium) of the same molecule?
Answer: 22%

Question: How did the “anti-TB activity in words” value (12.5 μg/mL) turn out when `O=c1cc(-c2ccccc2)oc2c(I)cccc12` [Compound 114] was run?
Answer: weakly active or inactive

Question: And the “Activity % Inhibition at 12.5 μg/mL (flavones)” value (12.5 μg/mL, BACTEC 12B medium)?
Answer: 5%

Question: Which “Activity % inhibition at 12.5 μg/mL (chalcone-like compounds)” value (12.5 μg/mL, BACTEC 12B medium) does the source give for `COc1ccc(O)c(C(=O)/C=C/c2ccco2)c1` [Compound 69] here?
Answer: 0%

Question: For `Nc1ccccc1/C=C/C(=O)c1ccc(Br)cc1O` [Compound 38], which “Activity % inhibition at 12.5 μg/mL (chalcones)” value (12.5 μg/mL, BACTEC 12B medium) is on record?
Answer: 12%

Question: What about the “inhibition of the growth of Mtb” value (drug concentration 12.5 μg/mL) of the same molecule?
Answer: 8% and 12%

Question: Which “Activity % inhibition at 12.5 μg/mL (chalcone-like compounds)” value (12.5 μg/mL, BACTEC 12B medium) does the source give for `Nc1ncccc1C=CC(=O)c1cc(Cl)ccc1O` [Compound 72] here?
Answer: 0%

Question: How did the inhibition at 12.5 µg/mL [1] turn out when `O=c1cc(-c2ccc(O)c(-c3c(O)cc4oc(-c5ccc(O)cc5)cc(=O)c4c3O)c2)oc2cc(O)cc(O)c12` [Compound 166, Robustaflavone] was run?
Answer: 0%

Question: Which “Activity % inhibition at 12.5 μg/mL (chalcone-like compounds)” value (12.5 μg/mL, BACTEC 12B medium) does the source give for `O=C(/C=C/c1cc2ccccc2[nH]1)c1ccncc1` [Compound 64] here?
Answer: 12%

Question: For `O=c1cc(-c2ccc(Br)cc2)oc2ccccc12` [Compound 97], which “anti-TB activity in words” value (12.5 μg/mL) is on record?
Answer: weakly active or inactive

Question: And the “Activity % Inhibition at 12.5 μg/mL (flavones)” value (12.5 μg/mL, BACTEC 12B medium)?
Answer: 26%

Question: And the “inhibition of the growth of Mtb” value (drug concentration 12.5 μg/mL)?
Answer: 26%

Question: With `COc1ccc(-c2cc(=O)c3ccc(I)cc3o2)cc1` [Compound 128] as the molecule, how does the “Activity % Inhibition at 12.5 μg/mL (flavones)” value (12.5 μg/mL, BACTEC 12B medium) read?
Answer: 0%

Question: For `O=C1CC(c2ccccc2)Oc2cc(I)ccc21` (centres unmarked) [Compound 141], which “Activity % Inhibition at 12.5 μg/mL (flavanones)” value (12.5 μg/mL, BACTEC 12B medium) is on record?
Answer: 9%

Question: For `O=C1c2c(O)cc(O)cc2O[C@H](c2ccc(O)cc2)[C@H]1c1c(O)cc(O)c2c(=O)cc(-c3ccc(O)c(O)c3)oc12` [Compound 171, Morelloflavone], which inhibition at 12.5 µg/mL [1] is on record?
Answer: 0%

Question: What does the source list for `O=C(/C=C/c1ccccc1Br)c1ccccc1O` [Compound 31]?
Answer: Activity % inhibition at 12.5 μg/mL (chalcones) (12.5 μg/mL, BACTEC 12B medium): 83%; inhibition of the growth of Mtb (drug concentration 12.5 μg/mL): 83%

Question: With `COc1ccc(C(=O)/C=C/c2ccco2)c(O)c1` [Compound 65] as the molecule, how does the “Activity % inhibition at 12.5 μg/mL (chalcone-like compounds)” value (12.5 μg/mL, BACTEC 12B medium) read?
Answer: 3%

Question: For `O=C(/C=C/c1cccc(O)c1)c1ccccc1O` [Compound 10], which “Activity % inhibition at 12.5 μg/mL (chalcones)” value (12.5 μg/mL, BACTEC 12B medium) is on record?
Answer: 18%

Question: Which “Activity % Inhibition at 12.5 μg/mL (flavones)” value (12.5 μg/mL, BACTEC 12B medium) does the source give for `O=c1c(O)c(-c2ccccc2)oc2c(F)cccc12` [Compound 90] here?
Answer: 43%

Question: How did the inhibition at 12.5 µg/mL [1] turn out when `O=c1cc(-c2ccc(Oc3c(O)cc4oc(-c5ccc(O)cc5)cc(=O)c4c3O)cc2)oc2cc(O)cc(O)c12` [Compound 167, Hinokiflavone] was run?
Answer: 0%
